In general, logP refers to a log measure of how a compound divides between an organic and an aqueous phase. Higher therefore signals higher lipophilicity.

On to `COc1ccc(/C=C/C(=O)O)cc1`, for which the logP worked out at 2.68. The figure for `O=C(O)/C=C/c1ccc(O)cc1` is 1.79; for `O=C(C=Cc1ccccc1)OCC=Cc1ccccc1` it is 4.45; for `CCOC(=O)/C=C/c1ccc(O)c(O)c1` it is 2.56. With `CCN(CC)CCOC(=O)C=Cc1ccc(OC)c(OC)c1` the figure was 2.88.

Take `CCN(CC)CCOC(=O)/C=C/c1ccc(F)cc1`: the logP came out at 3.52. The figure for `COC(=O)/C=C/c1ccc(O)c(O)c1` is 2.22; for `O=C(O)/C=C/c1ccc2c(c1)OCO2` it is 2.59. The figure for `COc1ccc(C=CC(=O)O)cc1OC` is 2.34; for `CCN(CC)CCOC(=O)/C=C/c1cc(OC)c(OC)c(OC)c1` it is 2.84.

The compound `O=C(O)C=CC=Cc1ccccc1` displayed a logP of 3.15. The figure for `CCN(CC)CCOC(=O)/C=C/c1ccccc1` is 3.61; for `COc1cc(C=CC(=O)O)ccc1O` it is 1.87.

For the origin of these results see the SangsterLogP compilation.
